{
  "source": "patent US12419890B2",
  "about": "“Administration of sumo-activating enzyme inhibitor and checkpoint inhibitors” (Takeda Pharmaceutical Company Limited, priority 2019, dated 2025)",
  "key": {"[1]": {"tested_on": "B16-F10 syngeneic mouse melanoma-derived subcutaneous tumor", "experiment": "B16-F10 Study 7: mouse B16-F10 syngeneic tumor model, individual tumor volume", "assay_type": "in vivo", "settings": "delay from day 7 to day 10-12; of the 8 implanted tumors; Compound I-263a 7.5 mg/kg IV BIWx3 till Day 17", "description": "B16-F10 Study 7: B16-F10 is a mouse melanoma cell line. B16-F10 mouse syngeneic tumor model was generated by subcutaneous inoculation with 0.08×10^6 B16-F10 cells (cell suspension) in 11 weeks old female C57BL/6 mice (Taconic Biosciences, Rensselaer, NY) in the flank. When the mean tumor volume reached approximately 50 mm^3, the animals were randomized into one vehicle control and five treatment groups (n=8/group). Mice were then dosed with 20% HPbCD or Compound I-263a or anti-mouse PD-1 antibody over a 17-day period. Tumor growth and body weight were measured twice per week during the treatment and post-treatment periods, and mice were humanely euthanized once they had reached their humane endpoint.\n(§1) Study 7: A 0.75 mg/mL stock solution of Compound I-263a was formulated weekly in 20% HPβCD and administered intravenously (IV) based on exact animal body weight on each day of treatment, using a dosing volume of 10 mL/kg body weight. Final doses received were 7.5 mg/kg. Dosing volume for Compound I-263a was 0.2 mL. […]\n(§2) Tumors were measured twice weekly using vernier calipers. Tumor volumes were calculated using standard equation: V=W^2×L/2, where V=volume, W=width, and L=length for the tumor. […] Tumor size and body weight were measured twice a week for the duration of the study. […]"}, "[2]": {"tested_on": "A20 syngeneic mouse B-cell lymphoma-derived subcutaneous tumor", "experiment": "A20 Study 3: mouse A20 syngeneic tumor model, individual tumor volume", "assay_type": "in vivo", "description": "A20 Study 3: A20 is a mouse B-cell lymphoma cell line. A20 mouse syngeneic tumor model was generated by subcutaneous inoculation with 1.0×10^6 A20 cells (cell suspension) in 8 weeks old female BALB/c mice (Jackson Laboratory, 600 Main St, Bar Harbor, ME) in the flank. When the mean tumor volume reached approximately 50 mm^3, the animals were randomized into one vehicle control and three treatment groups (n=7/group). Mice were then dosed with 20% HPbCD or Compound I-263a or anti-mouse PD-1 antibody over a 11-day period. Tumor growth and body weight were measured twice per week during the treatment and post-treatment periods, and mice were humanely euthanized once they had reached their humane endpoint.\nas §1, with “3:” for “7:”, “1.65” for “0.75”, “15” for “7.5”\nas §2"}},
  "data": [
    {"smiles": "Cc1sc(C(=O)c2cncnc2N[C@@H]2C[C@H](COS(N)(=O)=O)[C@@H](O)C2)cc1[C@@H]1NCCc2ccc(Cl)cc21", "note": "[Compound I-263a, [(1R,2S,4R)-4-{[5-({4-[(1R)-7-chloro-1,2,3,4-tetrahydroisoquinolin-1-yl]-5-methyl-2-thienyl}carbonyl)pyrimidin-4-yl]amino}-2-hydroxycyclopentyl]methyl sulfamate]", "values": [
      {"measurement": "tumors with tumor growth delay", "setting": "[1]", "value": 2},
      {"measurement": "inhibition of tumor growth", "setting": "[2]; Compound I-263a 15 mg/kg IV QWx1 (Day 1), 7 tumors/group", "value": "modest inhibition"},
      {"measurement": "tumors in stasis", "setting": "[2]; stasis to day 8 of treatment, followed by rapid growth, out of 7 implanted, Compound I-263a 15 mg/kg IV Day 1", "value": 2}
    ]}
  ]
}
